In patent US20040198663A1, “Method of treating cardiac ischemia by using erythropoietin” (priority 2003, published 2004):

How the values were obtained:
[1] = tested on: nitric oxide synthase; test: Nitrite and nitrate release from isolated hearts; set-up: species or system rabbit; conditions: before 2.3±0.9
Method: Nitrite and nitrate release from hearts before (2.3±0.9 nmoles/min/g) and after (2.4±1.9 nmoles/min/g) 15 minutes treatment with erythropoietin (1.0 U/ml, n=8) were not different.

[2] = tested on: adult male Sprague Dawley rat hearts; test: Coronary artery ligation model, isolated perfused heart, 30 min regional ischemia and 3 hours reperfusion; conditions: erythropoietin 1.0 U/ml 15 minutes prior to regional ischemia, vs control
Excerpt: Animals used in this study were adult male Sprague Dawley rats (200-350 g, generally 300 g). Animals were housed under standard conditions and allowed to feed ad lib. The Animal Care and Use Committee of the Medical College of Wisconsin approved all procedures performed in accordance with the regulations adopted by the National Institutes of Health.
A myocardial infarction was produced via the ligation of the left main artery using 6-0 prolene suture (See, e.g., Clements-Jewery et al., Br J Pharmacol. 135:807-815, 2002; Farkas et al., J Cardiovasc Pharmacol. 39,412-424, 2002). Rats were anesthetized with sodium pentobarbital (50 mg/kg i.p.). Heparin was then administered (150 U/kg i.p.) to prevent the formation of a thrombus in the coronary vasculature. The heart was then excised and perfused retrogradely with bicarbonate buffer at a pressure of 80 mmHg. (See e.g., Baker et al., Am J Physiol 278, H1395-H1400, 2000). The perfusate was not recirculated. […]
The heart was sectioned in 2 mm segments from apex to atrio-ventricular groove in a transverse fashion. Each segment was recorded and placed in formalin. […] The percentage of infarction of each slide was expressed as a percentage of the entire area of the heart.

[3] = tested on: PKCε; test: Western analysis of cytosolic and particulate fractions of erythropoietin-treated hearts; set-up: species or system rabbit; conditions: erythropoietin 1.0 U/ml
Method: (§1) Western analysis. Hearts from infant rabbits were isolated and aerobically perfused with bicarbonate buffer for 30 minutes at constant pressure, then perfused with erythropoietin for 5 or 15 minutes. The free wall of the left ventricle was excised and immediately freeze-clamped between stainless steel tongs pre-cooled with liquid nitrogen. Frozen myocardial tissue samples were powdered in a pre-cooled stainless steel mortar and pestle.
(§2) The powdered tissue was then processed to obtain cytosolic and particulate fractions for Western analysis, as described in Raflee et al., Circulation 106:239-45 (2002). Powdered tissue was homogenized in sample buffer (50 mM Tris pH 7.5, 5 mM EDTA, 10 mM EGTA, 10 mM benzamidine, 10 μg/ml pepstatin A, 50 μg/ml PMSE, 10 μg/ml aprotinin, 10 μg/ml leupeptin, and 0.3% β-mercaptoenthanol) on ice for 50 strokes. Nuclei and cellular debris was removed by centrifugation (1000 g at. 4° C. for 15 min). The supernatant was transferred to a new cold 1.5 mL microcentrifuge tube. The cytosolic and particulate portions of total cellular proteins were separated by a 30-minute centrifugation at 45000 g. Protein concentrations were determined by the method of Bradford. Equal amounts of protein were analyzed by SDS-PAGE and Western blotting by using either isoform-specific antibodies for phospho-PKC detection or specific antibodies against phosphorylated and non-phosphorylated p38 MAPK, JNK, and p42/44 MAPK. The blots were developed by ECL. Densitometry was performed on each sample and analyzed with the use of NIH image software. Rafiee et al., Circulation 106:239-45 (2002).
(§3) Cytosolic and particulate fractions from erythropoietin-treated and untreated hearts were prepared. Protein content for PKCε, p38 MAP kinase, p42/44 MAP kinase and JUN kinase was determined by SDS-PAGE and Western blot analysis using monoclonal antibodies specific for PKCε, phosphorylated p38 MAP kinase (Thr180/Tyr182), p42/44 MAP kinase (Thr202/Tyr204), and JUN kinase (Thr183/Tyr185). Non-phosphorylated antibodies were used to ensure equal loading of proteins.

[4] = tested on: p42/44 MAP kinase; test: as above; set-up: species or system rabbit
Method: as §1, §2, §3

[5] = tested on: p38 MAP kinase; test: as above; set-up: species or system rabbit
Method: as §1, §2, §3

[6] = tested on: JUN kinase; test: as above; set-up: species or system rabbit
Method: as §1, §2, §3

[7] = erythropoietin 1.0 U/ml for 5 minutes
[8] = erythropoietin 1.0 U/ml for 15 minutes

“erythropoietin: Recombinant human erythropoietin, a glycoprotein hormone, obtained from Cell Science, Inc.” was tested, and the “nitrite and nitrate release from hearts after treatment” value ([1]; after 15-minute erythropoietin 1.0 U/ml, not different (discussion)) was 2.4 ± 0.9 nmol/min/g, the “nitrite and nitrate release from hearts after treatment” value ([1]; after 15 minutes erythropoietin 1.0 U/ml, not different) was 2.4 ± 1.9 nmol/min/g and the myocardial infarct size [2] was “decrease in myocardial infarct size”. For the same substance, the “treatment time at which phosphorylation of PKCε was maximal” value [3] was 15 min, the “PKCε activation and translocation” value ([3]; 5 or 15 minutes) was “activated and translocated from the cytosolic to the particulate fraction” and the “treatment time at which phosphorylation of p42/44 MAP kinase was maximal” value ([4]; erythropoietin 1.0 U/ml) was 15 min. The “phosphorylation of p42/44 MAP kinase” value [4, 7] was “remarkable phosphorylation of p42/44 MAP kinase in the cytosolic fraction with minor phosphorylation in the particulate fraction”, the “phosphorylation of p42/44 MAP kinase” value [4, 8] was “enhanced phosphorylation of p42/44 MAP kinase in the cytosolic fraction and in the particulate fraction” and the “treatment time at which phosphorylation of p38 MAP kinase was maximized” value ([5]; erythropoietin 1.0 U/ml) was 5 min. The “phosphorylation of p38 MAP kinase” value [5, 7] was “phosphorylation of p38 MAP kinase in the cytosolic fraction but not in the particulate fraction”, the “extent of phosphorylation of p38 MAP kinase” value [5, 8] was “declined” and the “treatment time at which phosphorylation of JUN kinase was maximized” value ([6]; erythropoietin 1.0 U/ml) was 5 min. For the same substance, the “phosphorylation of JUN kinase” value [6, 7] was “phosphorylation of JUN kinase in the cytosolic fraction but not in the particulate fraction” and the “phosphorylation of JUN kinase in the cytosolic fraction” value [6, 8] was “declined”.
